# Measured values reported in PMC10866072, “Design, synthesis, molecular modelling and biological evaluation of novel 6-amino-5-cyano-2-thiopyrimidine derivatives as potent anticancer agents against leukemia and apoptotic inducers” (Journal of Enzyme Inhibition and Medicinal Chemistry, 2024).
# Legend:
# CCRF-CEM = assay type: cell-based; conditions: one dose 10^-5 M, 48 h
# HL-60(TB) = assay type: cell-based; conditions: one dose 10^-5 M, 48 h
# K-562 = assay type: cell-based; conditions: one dose 10^-5 M, 48 h
# MOLT-4 = assay type: cell-based; conditions: one dose 10^-5 M, 48 h
# RPMI-8226 = assay type: cell-based; conditions: one dose 10^-5 M, 48 h
# SR = assay type: cell-based; conditions: one dose 10^-5 M, 48 h
# A549/ATCC = assay type: cell-based; conditions: one dose 10^-5 M, 48 h
# EKVX = assay type: cell-based; conditions: one dose 10^-5 M, 48 h
# HOP-62 = assay type: cell-based; conditions: one dose 10^-5 M, 48 h
# HOP-92 = assay type: cell-based; conditions: one dose 10^-5 M, 48 h
# NCI-H226 = assay type: cell-based; conditions: one dose 10^-5 M, 48 h
# NCI-H23 = assay type: cell-based; conditions: one dose 10^-5 M, 48 h
# NCI-H460 = assay type: cell-based; conditions: one dose 10^-5 M, 48 h
# NCI-H522 = assay type: cell-based; conditions: one dose 10^-5 M, 48 h
# COLO 205 = assay type: cell-based; conditions: one dose 10^-5 M, 48 h
# HCC-2998 = assay type: cell-based; conditions: one dose 10^-5 M, 48 h
# HCT-116 = assay type: cell-based; conditions: one dose 10^-5 M, 48 h
# HCT-15 = assay type: cell-based; conditions: one dose 10^-5 M, 48 h
# HT29 = assay type: cell-based; conditions: one dose 10^-5 M, 48 h
# KM12 = assay type: cell-based; conditions: one dose 10^-5 M, 48 h
# SW-620 = assay type: cell-based; conditions: one dose 10^-5 M, 48 h
# SF-268 = assay type: cell-based; conditions: one dose 10^-5 M, 48 h
# SF-295 = assay type: cell-based; conditions: one dose 10^-5 M, 48 h
# SF-539 = assay type: cell-based; conditions: one dose 10^-5 M, 48 h
# SNB-19 = assay type: cell-based; conditions: one dose 10^-5 M, 48 h
# U251 = assay type: cell-based; conditions: one dose 10^-5 M, 48 h
# LOX IMVI = assay type: cell-based; conditions: one dose 10^-5 M, 48 h
# MALME-3M = assay type: cell-based; conditions: one dose 10^-5 M, 48 h
# M14 = assay type: cell-based; conditions: one dose 10^-5 M, 48 h
# MDA-MB-435 = assay type: cell-based; conditions: one dose 10^-5 M, 48 h
# SK-MEL-2 = assay type: cell-based; conditions: one dose 10^-5 M, 48 h
# SK-MEL-28 = assay type: cell-based; conditions: one dose 10^-5 M, 48 h
# SK-MEL-5 = assay type: cell-based; conditions: one dose 10^-5 M, 48 h
# UACC-257 = assay type: cell-based; conditions: one dose 10^-5 M, 48 h
# UACC-62 = assay type: cell-based; conditions: one dose 10^-5 M, 48 h
# IGROV1 = assay type: cell-based; conditions: one dose 10^-5 M, 48 h
# OVCAR-3 = assay type: cell-based; conditions: one dose 10^-5 M, 48 h
# OVCAR-4 = assay type: cell-based; conditions: one dose 10^-5 M, 48 h
# OVCAR-5 = assay type: cell-based; conditions: one dose 10^-5 M, 48 h
# OVCAR-8 = assay type: cell-based; conditions: one dose 10^-5 M, 48 h
# NCI/ADR-RES = assay type: cell-based; conditions: one dose 10^-5 M, 48 h
# SK-OV-3 = assay type: cell-based; conditions: one dose 10^-5 M, 48 h
# 786-0 = assay type: cell-based; conditions: one dose 10^-5 M, 48 h
# A498 = assay type: cell-based; conditions: one dose 10^-5 M, 48 h
# ACHN = assay type: cell-based; conditions: one dose 10^-5 M, 48 h
# CAKI-1 = assay type: cell-based; conditions: one dose 10^-5 M, 48 h
# RXF 393 = assay type: cell-based; conditions: one dose 10^-5 M, 48 h
# SN12C = assay type: cell-based, human; conditions: one dose 10^-5 M, 48 h
# TK-10 = assay type: cell-based; conditions: one dose 10^-5 M, 48 h
# UO-31 = assay type: cell-based; conditions: one dose 10^-5 M, 48 h
# PC-3 = assay type: cell-based; conditions: one dose 10^-5 M, 48 h
# DU-145 = assay type: cell-based; conditions: one dose 10^-5 M, 48 h
# MCF7 = assay type: cell-based; conditions: one dose 10^-5 M, 48 h
# MDA-MB-231/ATCC = assay type: cell-based; conditions: one dose 10^-5 M, 48 h
# HS 578T = assay type: cell-based; conditions: one dose 10^-5 M, 48 h; HS 578T
# BT-549 = assay type: cell-based; conditions: one dose 10^-5 M, 48 h
# T-47D = assay type: cell-based; conditions: one dose 10^-5 M, 48 h
# MDA-MB-468 = assay type: cell-based; conditions: one dose 10^-5 M, 48 h
# [1] = system: full NCI 60 cell lines panel
substance,measurement,setting,value
"3-Amino-4–(2,4-dichlorophenyl)-1H-pyrazolo[3,4-d] pyrimidine-6-thiol [Compound 3c]",% growth,CCRF-CEM,94.56%
same,% growth,HL-60(TB),89.08%
same,% growth,K-562,105.30%
same,% growth,MOLT-4,90.06%
same,% growth,RPMI-8226,108.63%
same,% growth,SR,97.30%
same,% growth,A549/ATCC,104.45%
same,% growth,EKVX,115.88%
same,% growth,HOP-62,92.49%
same,% growth,HOP-92,76.20%
same,% growth,NCI-H226,106.10%
same,% growth,NCI-H23,103.34%
same,% growth,NCI-H460,115.81%
same,% growth,NCI-H522,95.34%
same,% growth,COLO 205,120.01%
same,% growth,HCC-2998,103.06%
same,% growth,HCT-116,112.94%
same,% growth,HCT-15,111.27%
same,% growth,HT29,110.65%
same,% growth,KM12,104.75%
same,% growth,SW-620,106.47%
same,% growth,SF-268,108.35%
same,% growth,SF-295,94.52%
same,% growth,SF-539,94.60%
same,% growth,SNB-19,93.39%
same,% growth,U251,103.99%
same,% growth,LOX IMVI,106.21%
same,% growth,MALME-3M,92.32%
same,% growth,M14,106.66%
same,% growth,MDA-MB-435,110.71%
same,% growth,SK-MEL-2,108.60%
same,% growth,SK-MEL-28,115.84%
same,% growth,SK-MEL-5,108.42%
same,% growth,UACC-257,107.51%
same,% growth,UACC-62,93.81%
same,% growth,IGROV1,105.59%
same,% growth,OVCAR-3,109.08%
same,% growth,OVCAR-4,105.05%
same,% growth,OVCAR-5,108.30%
same,% growth,OVCAR-8,109.69%
same,% growth,NCI/ADR-RES,114.09%
same,% growth,SK-OV-3,86.72%
same,% growth,786-0,100.98%
same,% growth,A498,125.09%
same,% growth,ACHN,106.88%
same,% growth,CAKI-1,96.86%
same,% growth,RXF 393,114.73%
same,% growth,SN12C,105.03%
same,% growth,TK-10,146.75%
same,% growth,UO-31,85.75%
same,% growth,PC-3,96.81%
same,% growth,DU-145,119.84%
same,% growth,MCF7,95.64%
same,% growth,MDA-MB-231/ATCC,94.87%
same,% growth,HS 578T,100.24%
same,% growth,BT-549,100.27%
same,% growth,T-47D,92.59%
same,% growth,MDA-MB-468,110.26%
same,activity on all 60 cancer cell lines tested (in words),[1]; one dose,weak activity
same,Mean % growth,"[1]; one dose 10^-5 M, 48 h, mean over all cell lines",104.17%
